One experiment relates to FADD−/− Jurkat cells. Kind of experiment: Necroptosis inhibition assay, TNF-α-induced necroptosis (CellTiter-Glo 2.0). The experiment is classed as cell-based, human. Conditions: TNF-α 15 ng/mL; for Necroptosis inhibition assay (Rescue %) 1 μM: compound 1 μM; for Necroptosis inhibition assay (Rescue %) 10 μM: compound 10 μM. In a few lines:
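Luminescent ATP measurement gave viability, from which cytotoxicity and necroptosis inhibition rate were derived. Before that, cells (5.0×10^5 cells/mL) saw compound at 0.1, 1 or 10 μM final for 30 minutes at room temperature, then TNF-α (15 ng/mL final) for 20 to 24 hours at 37° C.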
A general note: Cellular ATP, detected with luciferase, serves as a proxy for viable cell number.

Experiment [1] deals with T1, MLKL (Homo sapiens, UniProt Q8NB16).
T1 sequence (Q8NB16 1-471): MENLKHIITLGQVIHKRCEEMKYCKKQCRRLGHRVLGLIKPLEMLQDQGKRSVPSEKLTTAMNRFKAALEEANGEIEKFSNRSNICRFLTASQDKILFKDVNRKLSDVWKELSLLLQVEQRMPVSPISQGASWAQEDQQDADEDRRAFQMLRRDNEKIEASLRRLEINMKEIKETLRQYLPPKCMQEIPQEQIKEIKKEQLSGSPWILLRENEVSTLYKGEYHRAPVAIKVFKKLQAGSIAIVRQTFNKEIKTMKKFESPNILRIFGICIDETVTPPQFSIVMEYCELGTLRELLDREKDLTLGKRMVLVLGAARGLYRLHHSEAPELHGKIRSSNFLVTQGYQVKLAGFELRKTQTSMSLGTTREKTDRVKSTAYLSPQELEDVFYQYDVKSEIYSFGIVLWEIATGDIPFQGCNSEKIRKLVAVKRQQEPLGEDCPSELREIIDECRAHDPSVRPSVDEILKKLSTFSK
The experiment is described as follows: MLKL degradation assay in HepG2 cell line (western blot). Further details: endogenous in cells; host or cells: HepG2 or HaCaT. It is filed as cell-based. The following applies: cell line not given; for Degradation assay (Degradation %) 1 μM: compound 1 μM; for Degradation assay (Degradation %) 10 μM: compound 10 μM. An outline of the steps:
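Cells seeded, next day medium swapped for compound-containing medium (final 1 or 10 μM) and incubated 20-24 h at 37 °C. Lysates in RIPA with protease/phosphatase inhibitors were protein-matched by BCA, run on SDS-PAGE and immunoblotted for MLKL.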
(In general: Immunoblotting shows a protein as a band on a membrane.)

The target of experiment [2] is T1, MLKL. Kind of experiment: Measurement of binding affinity with MLKL receptor (competitive binding assay, Kd). Further details: made in house; host or cells: HEK 293 cell line (T7 phage in E. coli BL21-derived host is also described). In a few lines: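 Kd comes from a bead-based competition format: compound-dependent loss of DNA-tagged, HEK 293-expressed MLKL capture, measured as eluate kinase by qPCR. Final DMSO is 0.9%.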

Usually Kd stands for the concentration at which binding is half-saturated. High values mean weaker binding, low ones tighter binding. `Nc1ncc(-c2cnn(C3CCN(CCC4CCN(C(=O)C5CCN(c6cccc7nnn(C8CCC(=O)NC8=O)c(=O)c67)CC5)CC4)CC3)c2)nc1C(=O)OC(C(=O)Nc1ccc(F)cc1)c1ccccc1` (centres unmarked) [TDH-289, 2-((4-fluorophenyl)amino)-2-oxo-1-phenylethyl 3-amino-6-(1-(1-(2-(1-(1-(3-(2,6-dioxopiperidin-3-yl)-4-oxo-3,4-dihydrobenzo[d][1,2,3]triazin-5-yl)piperidine-4-carbonyl)piperidin-4-yl)ethyl)piperidin-4-yl)-1H-pyrazol-4-yl)pyrazine-2-carboxylate]: in the experiment with FADD−/− Jurkat cells, the “Necroptosis inhibition assay (Rescue %) 1 μM” value was determined as 67.46% and the “Necroptosis inhibition assay (Rescue %) 10 μM” value amounted to 61.24%. For the same compound, at MLKL [1], the “Degradation assay (Degradation %) 1 μM” value worked out at 66.33% and the “Degradation assay (Degradation %) 10 μM” value is reported as 43.03%. On MLKL [2], this compound showed an equilibrium dissociation constant (Kd) of 2.2 nM.

For the compound `Nc1ncc(-c2cnn(C3CCN(CCCN4CC5CC4CN5C(=O)COc4ccc5c(c4)C(=O)N(C4CCC(=O)NC4=O)C5=O)CC3)c2)nc1C(=O)O[C@@H](C(=O)Nc1ccc(F)cc1)c1ccccc1` (stereo partly drawn) [TDH-453, (R)-2-((4-fluorophenyl)amino)-2-oxo-1-phenylethyl 3-amino-6-(1-(1-(3-(5-(2-((2-(2,6-dioxopiperidin-3-yl)-1,3-dioxoisoindolin-5-yl)oxy)acetyl)-2,5-diazabicyclo[2.2.1]heptan-2-yl)propyl)piperidin-4-yl)-1H-pyrazol-4-yl)pyrazine-2-carboxylate], in the experiment with FADD−/− Jurkat cells (FADD−/− Jurkat cells), the “Necroptosis inhibition assay (Rescue %) 1 μM” value is listed as 51.32% and the “Necroptosis inhibition assay (Rescue %) 10 μM” value is 49.41%. Besides, on MLKL [1], the “Degradation assay (Degradation %) 1 μM” value was found to be 74.72% and the “Degradation assay (Degradation %) 10 μM” value is on record as 92.96%. The dissociation constant Kd on MLKL [2] was determined as 0.64 nM.

Consider `Nc1ncc(-c2cnn([C@H]3CCN(CC4CCN(C(=O)COc5cccc6c5C(=O)N(C5CCC(=O)NC5=O)C6=O)CC4)C3)c2)nc1C(=O)OC(C(=O)Nc1ccc(F)cc1)c1ccccc1` (stereo partly drawn) [TDH-283, 2-((4-fluorophenyl)amino)-2-oxo-1-phenylethyl 3-amino-6-(1-((3S)-1-((1-(2-((2-(2,6-dioxopiperidin-3-yl)-1,3-dioxoisoindolin-4-yl)oxy)acetyl)piperidin-4-yl)methyl)pyrrolidin-3-yl)-1H-pyrazol-4-yl)pyrazine-2-carboxylate], for which, in the experiment on FADD−/− Jurkat cells, the “Necroptosis inhibition assay (Rescue %) 1 μM” value came out at 44.29% and the “Necroptosis inhibition assay (Rescue %) 10 μM” value amounted to 54.92%. Further, at MLKL [1], the “Degradation assay (Degradation %) 1 μM” value amounted to 4.29% and the “Degradation assay (Degradation %) 10 μM” value was 31.1%. Further, at MLKL [2], the dissociation constant Kd was determined as 2.1 nM.

Consider `Nc1ncc(-c2cnn([C@H]3CCN(CCOCCOCCNC(=O)COc4ccc5c(c4)C(=O)N(C4CCC(=O)NC4=O)C5=O)C3)c2)nc1C(=O)OC(C(=O)Nc1ccc(F)cc1)c1ccccc1` (stereo partly drawn) [TDH-266, 2-((4-fluorophenyl)amino)-2-oxo-1-phenylethyl 3-amino-6-(1-((3S)-1-(2-(2-(2-(2-((2-(2,6-dioxopiperidin-3-yl)-1,3-dioxoisoindolin-5-yl)oxy)acetamido)ethoxy)ethoxy)ethyl)pyrrolidin-3-yl)-1H-pyrazol-4-yl)pyrazine-2-carboxylate], for which, in the experiment with FADD−/− Jurkat cells, the “Necroptosis inhibition assay (Rescue %) 1 μM” value was determined as 35.24% and the “Necroptosis inhibition assay (Rescue %) 10 μM” value is reported as 68.2%. At MLKL [1], the “Degradation assay (Degradation %) 1 μM” value is reported as 18.14% and the “Degradation assay (Degradation %) 10 μM” value stood at 40.08%. The compound further came in with an equilibrium dissociation constant (Kd) on MLKL [2] of 6 nM.

As to `Nc1ncc(-c2cnn(C3CCN(CCC4CCN(CC5CCN(C(=O)Cc6cccc(NC7=CC(=O)N(C8CCC(=O)NC8=O)C7=O)c6)CC5)CC4)CC3)c2)nc1C(=O)O[C@@H](C(=O)Nc1ccc(F)cc1)c1ccccc1` (stereo partly drawn) [TDH-510, (R)-2-((4-fluorophenyl)amino)-2-oxo-1-phenylethyl 3-amino-6-(1-(1-(2-(1-((1-(2-(3-((1-(2,6-dioxopiperidin-3-yl)-2,5-dioxo-2,5-dihydro-1H-pyrrol-3-yl)amino)phenyl)acetyl)piperidin-4-yl)methyl)piperidin-4-yl)ethyl)piperidin-4-yl)-1H-pyrazol-4-yl)pyrazine-2-carboxylate], in the experiment with FADD−/− Jurkat cells (FADD−/− Jurkat cells), the “Necroptosis inhibition assay (Rescue %) 1 μM” value is reported as 28.63% and the “Necroptosis inhibition assay (Rescue %) 10 μM” value is reported as −91.81%. Further, at MLKL [1], the “Degradation assay (Degradation %) 1 μM” value was 79.77% and the “Degradation assay (Degradation %) 10 μM” value came to 84.86%. For the same compound, binding at MLKL [2] was characterised by a dissociation constant (Kd) of 0.47 nM.

On to `Nc1ncc(-c2cnn(C3CCN(C[C@H]4CC[C@H](CNC(=O)CNc5ccc6c(c5)C(=O)N(C5CCC(=O)NC5=O)C6=O)CC4)CC3)c2)nc1C(=O)O[C@@H](C(=O)Nc1ccc(F)cc1)c1ccccc1` (stereo partly drawn) [TDH-348, (R)-2-((4-fluorophenyl)amino)-2-oxo-1-phenylethyl 3-amino-6-(1-(1-(((1r,4r)-4-((2-((2-(2,6-dioxopiperidin-3-yl)-1,3-dioxoisoindolin-5-yl)amino)acetamido)methyl)cyclohexyl)methyl)piperidin-4-yl)-1H-pyrazol-4-yl)pyrazine-2-carboxylate], for which, in the experiment on FADD−/− Jurkat cells, the “Necroptosis inhibition assay (Rescue %) 1 μM” value turned out to be 61.43% and the “Necroptosis inhibition assay (Rescue %) 10 μM” value is 29.04%. In addition, on MLKL [1], the “Degradation assay (Degradation %) 1 μM” value is listed as 48.66% and the “Degradation assay (Degradation %) 10 μM” value is on record as 81.15%. On MLKL [2], this compound yielded a dissociation constant (Kd) of 1.6 nM.

With `Nc1ncc(-c2cnn(C3CCN(C(=O)C4CCN(C(=O)CNc5ccc6c(c5)C(=O)N(C5CCC(=O)NC5=O)C6=O)CC4)CC3)c2)nc1C(=O)OC(C(=O)Nc1ccc(F)cc1)c1ccccc1` (centres unmarked) [TDH-276, 2-((4-fluorophenyl)amino)-2-oxo-1-phenylethyl 3-amino-6-(1-(1-(1-((2-(2,6-dioxopiperidin-3-yl)-1,3-dioxoisoindolin-5-yl)glycyl)piperidine-4-carbonyl)piperidin-4-yl)-1H-pyrazol-4-yl)pyrazine-2-carboxylate], in the experiment on FADD−/− Jurkat cells, the “Necroptosis inhibition assay (Rescue %) 1 μM” value was found to be 75.36% and the “Necroptosis inhibition assay (Rescue %) 10 μM” value came out at 70.49%. Moreover, at MLKL [1], the “Degradation assay (Degradation %) 1 μM” value is listed as 78.62% and the “Degradation assay (Degradation %) 10 μM” value worked out at 75.61%. Besides, the affinity at MLKL [2], expressed as Kd, was 3.6 nM.

For `Nc1ncc(-c2cnn(C3CCN(C(=O)CC4CCN(C(=O)CNc5ccc6nnn(C7CCC(=O)NC7=O)c(=O)c6c5)CC4)CC3)c2)nc1C(=O)O[C@@H](C(=O)Nc1ccc(F)cc1)c1ccccc1` (stereo partly drawn) [TDH-405, (R)-2-((4-fluorophenyl)amino)-2-oxo-1-phenylethyl 3-amino-6-(1-(1-(2-(1-((3-(2,6-dioxopiperidin-3-yl)-4-oxo-3,4-dihydrobenzo[d][1,2,3]triazin-6-yl)glycyl)piperidin-4-yl)acetyl)piperidin-4-yl)-1H-pyrazol-4-yl)pyrazine-2-carboxylate], in the experiment with FADD−/− Jurkat cells (FADD−/− Jurkat cells), the “Necroptosis inhibition assay (Rescue %) 1 μM” value is given as 36.97% and the “Necroptosis inhibition assay (Rescue %) 10 μM” value came out at 37.28%. Moreover, on MLKL [1], the “Degradation assay (Degradation %) 1 μM” value was found to be 70.59% and the “Degradation assay (Degradation %) 10 μM” value came out at 64.30%. For the same compound, binding on MLKL [2] was put at a Kd of 3.2 nM.

Regarding `Nc1ncc(-c2cnn(C3CCN(C(=O)CC4CCN(C(=O)CNc5ccc6c(c5)C(=O)N(C5CCC(=O)NC5=O)C6=O)CC4)CC3)c2)nc1C(=O)O[C@@H](C(=O)Nc1ccc(F)cc1)c1ccccc1` (stereo partly drawn) [TDH-340, (R)-2-((4-fluorophenyl)amino)-2-oxo-1-phenylethyl 3-amino-6-(1-(1-(2-(1-((2-(2,6-dioxopiperidin-3-yl)-1,3-dioxoisoindolin-5-yl)glycyl)piperidin-4-yl)acetyl)piperidin-4-yl)-1H-pyrazol-4-yl)pyrazine-2-carboxylate], in the experiment with FADD−/− Jurkat cells, the “Necroptosis inhibition assay (Rescue %) 1 μM” value stood at 42.94% and the “Necroptosis inhibition assay (Rescue %) 10 μM” value is 43.81%. For the same compound, at MLKL [1], the “Degradation assay (Degradation %) 1 μM” value amounted to 73.39% and the “Degradation assay (Degradation %) 10 μM” value is on record as 73.33%. The dissociation constant (Kd) on MLKL [2] amounted to 7.5 nM.

Take `Nc1ncc(-c2cnn(C3CCN(C(=O)CC4CCN(C(=O)C5CN(c6ccc7nnn(C8CCC(=O)NC8=O)c(=O)c7c6)C5)CC4)CC3)c2)nc1C(=O)O[C@@H](C(=O)Nc1ccc(F)cc1)c1ccccc1` (stereo partly drawn) [TDH-406, (R)-2-((4-fluorophenyl)amino)-2-oxo-1-phenylethyl 3-amino-6-(1-(1-(2-(1-(1-(3-(2,6-dioxopiperidin-3-yl)-4-oxo-3,4-dihydrobenzo[d][1,2,3]triazin-6-yl)azetidine-3-carbonyl)piperidin-4-yl)acetyl)piperidin-4-yl)-1H-pyrazol-4-yl)pyrazine-2-carboxylate]: in the experiment on FADD−/− Jurkat cells (FADD−/− Jurkat cells), the “Necroptosis inhibition assay (Rescue %) 1 μM” value is 44.99% and the “Necroptosis inhibition assay (Rescue %) 10 μM” value stood at 39.97%. Besides, on MLKL [1], the “Degradation assay (Degradation %) 1 μM” value is 77.69% and the “Degradation assay (Degradation %) 10 μM” value worked out at 60.15%. This compound also displayed a Kd at MLKL [2] of 6.5 nM.

The record behind these values is patent publication US20240252488A1 (KOREA RESEARCH INSTITUTE OF CHEMICAL TECHNOLOGY, priority 2020, published 2024).
